Experimental data from PubChem BioAssay (NCI).
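1) Cells in 96-well plates. 2) Compound, 48 h, 5 concentrations. 3) Linear interpolation between surrounding doses. 4) Unreached endpoint = highest concentration. TGI: concentration producing complete growth inhibition.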 Where a SMILES comes first, the peptide text is derived from it. Bridges are numbered along the chain shown (N, C = ends). The star is where a group is joined. Cbz = O=C(OCc1ccccc1)*

Tests used:
Assay in all cases: inhibition of tumour cell growth, NCI panel, 48 h
DU-145 prostate = tested on: DU-145 prostate
HCT-116 colon = tested on: HCT-116 colon
IGROV1 ovarian = tested on: IGROV1 ovarian
NCI-H23 lung = tested on: NCI-H23 lung
NCI-H460 lung = tested on: NCI-H460 lung
OVCAR-8 ovarian = tested on: OVCAR-8 ovarian
SK-MEL-2 melanoma = tested on: SK-MEL-2 melanoma
UACC-62 melanoma = tested on: UACC-62 melanoma

| Structure (SMILES) | TGI (DU-145 prostate) [µM] | TGI (HCT-116 colon) [µM] | TGI (IGROV1 ovarian) [µM] | TGI (NCI-H23 lung) [µM] | TGI (NCI-H460 lung) [µM] | TGI (OVCAR-8 ovarian) [µM] | TGI (SK-MEL-2 melanoma) [µM] | TGI (UACC-62 melanoma) [µM] |
| --- | --- | --- | --- | --- | --- | --- | --- | --- |
| N#Cc1cc2c(cc1C#N)SCCSCCCSCCS2 | > 100 | > 86.6 | 97.8 | 38.3 | > 53.8 | 31.8 | 42.8 | 27.6 |
| CC(C)(C)C(=O)/C=C(\OB(F)F)C(C)(C)C | > 100 | > 100 | > 100 | > 100 | > 100 | > 100 | > 100 | – |
| CNC(=O)C1CCCCNC(=O)CCC(NC(=O)OCc2ccccc2)C(=O)N1 (stereo not drawn) (Cbz-Glu-Lys-NHMe; lactam 1-2; configuration not given here) | > 100 | > 100 | > 100 | > 100 | > 100 | > 100 | > 100 | > 100 |
| CC(C)=CCC[C@@H](C)[C@H]1CC[C@@]2(C)[C@@H]3CC[C@H]4C(C)(C)[C@@H](O)CC[C@@]45C[C@@]35CC[C@]12C | > 100 | > 77.9 | 40.5 | 50.7 | 39.8 | 42.6 | > 100 | > 100 |
| CCCCCCCCCCCCCCCCOCC(COP(=O)(O)OCC1OC(n2cc(CC)c(=O)[nH]c2=O)CC1O)OC(=O)CCCCCCCCCCCCCCC (configuration not stated) | > 100 | > 100 | > 100 | > 100 | – | > 100 | > 100 | > 100 |
| Cc1nnc2n1N=C(c1cc(F)c(Cl)cc1Cl)/C(=C/c1ccc(-c3ccc([N+](=O)[O-])cc3)o1)S2 | – | > 100 | > 100 | > 100 | > 100 | > 100 | > 100 | > 100 |
| O=C(O)c1cc(CCc2ccc(O)c(O)c2)ccc1O | > 100 | > 100 | > 100 | > 100 | > 100 | > 100 | > 100 | > 100 |
| COC1=C(C(c2cc(OC)c(OC)c(OC)c2)c2cc3c(cc2OC)OCO3)C(=O)OC1 (configuration not stated) | 70.5 | 33.5 | > 84.8 | > 80 | > 84.7 | 73.9 | > 100 | > 87 |
| O=C1C=CC2(C=C1)O[C@H](COCc1ccccc1)[C@@H](COCc1ccccc1)O2 | 12.5 | 0.582 | 3.03 | 4.29 | 37.2 | 1.28 | 3.46 | 3.99 |
| COc1ccc2c(-c3csc(-c4c[nH]c5ccc(Br)cc45)n3)c[nH]c2c1 | > 100 | > 100 | > 100 | > 100 | > 100 | > 100 | > 100 | > 100 |
| COc1cc2nc(-c3cccs3)nc(Nc3cccc([N+](=O)[O-])c3)c2cc1OC | 30 | 32.8 | 32.2 | 28.9 | 77.1 | 56.8 | 39.8 | 31.1 |
| Cc1ccc(S(=O)(=O)NNC(=O)Nc2cccc(C(F)(F)F)c2)cc1 | > 100 | > 100 | > 100 | > 100 | > 100 | > 100 | > 100 | > 100 |
| CC(C)[Si](OC12CCC(CC1O)CC2CO)(C(C)C)C(C)C (configuration not stated) | 35.5 | 20.7 | – | 25.4 | 25.2 | 29.7 | 29.3 | 28.9 |
| CCOC(=O)c1nc2ccccc2nc1Oc1cc(OC)cc(OC)c1 | > 100 | > 100 | > 100 | – | > 100 | > 100 | > 100 | > 100 |
| CC(=O)N1C=Cc2c(c(C)c3c([nH]c4ccccc43)c2C)C1 | 26.6 | 3.21 | 17.9 | 20.4 | – | 29.1 | 27.2 | – |
| CN(C)CCNc1ccc(NCC[N+](C)(C)Cc2ccc([N+](=O)[O-])cc2)c2c1C(=O)c1c(O)ccc(O)c1C2=O | > 100 | > 100 | > 100 | > 100 | – | > 100 | > 100 | > 100 |
| CC(C)OC(=O)NCCn1cc(-c2ccccc2)nn1 | > 100 | > 100 | – | > 100 | > 100 | > 100 | > 100 | – |
| CN1CCN(Cn2nc(COc3ccccc3Cl)n(/N=C/c3ccc(-c4ccc(Cl)cc4Cl)o3)c2=S)CC1 | 38.3 | 34.7 | > 100 | 44.8 | 51.6 | 79.3 | 45.4 | – |
| Brc1ccc(C2=NCSC(c3ccc(Br)cc3)=N2)cc1 | – | 59.2 | > 100 | > 100 | 53.8 | > 100 | 32.5 | 29.8 |
| CCC(C)N1CN(c2ccccc2)C2(CCN(CC3COc4ccccc4O3)CC2)C1=O (configuration not stated) | 59.8 | 32 | > 100 | 73.1 | – | 67.9 | – | 49.8 |
| OCC(O)COCn1cc(Cn2ncc3c(SCc4ccccc4)ncnc32)nn1 (configuration not stated) | > 100 | > 100 | > 100 | > 100 | – | > 100 | > 100 | > 100 |
| O=C(CC(NC(=O)OCc1ccccc1)C(=O)NC1Cc2ccccc2C1=O)OCc1ccccc1 (configuration not stated) | > 100 | – | > 100 | > 100 | > 100 | > 100 | > 100 | > 100 |
| O=C(c1ccc2ccccc2c1)C1(I)S(=O)(=O)OCCOS1(=O)=O | > 100 | > 100 | – | > 100 | > 100 | > 100 | > 100 | – |
| O=C(O)C(Cc1cc(I)c(O)c(I)c1)C1CCCCC1 (configuration not stated) | > 100 | 88.7 | > 100 | 65.5 | 46 | > 100 | – | > 100 |
| Cc1nc2ccc(F)cc2c2c1CCS2 | > 100 | > 100 | > 100 | > 100 | > 100 | > 100 | – | > 100 |
| CC(=O)c1ccc(Br)cc1NC1=CC(=O)c2ncccc2C1=O | 16.4 | 4.5 | 12.4 | 13 | – | 18.2 | 16.9 | 6.13 |
